This test deals with CHO NFAT-BLA reporter, FRET beta-lactamase activation counterscreen. As to the kind of experiment: NFAT-BLA reporter activators, potency curves, dose response, counter-screen for GALR2 agonist project, CHO NFAT-bla cells, FRET readout (AID 1228). Background: The purpose of a counterscreen is to sort out artefacts and off-target activity.

The source made the active and inactive calls.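 The calls were made as follows: active = EC50 at or below 10 µM; inactive = EC50 above 10 µM.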 A value given as a limit tells only on which side of the number the result lay.

Among the data in PubChem BioAssay AID1228 (The Scripps Research Institute Molecular Screening Center, 2008) are EC50 values, retold here.

As to `CC1=C/C(=N\OS(=O)(=O)c2ccccc2)C(C(C)C)=CC1=O`, the EC50 – broadly, the concentration needed to bring the measured effect to its halfway point – is > 55.7 µM (inactive).

As to `CCCOc1ccc(C(=O)C(CCC(CNCC)C(=O)c2ccc(OCCC)cc2)CNCC)cc1` (stereo unspecified), the EC50 was > 55.7 µM (inactive).

As for `Cc1ccc2nsnc2c1NC(=O)c1ccc(-c2cc(Cl)ccc2Cl)o1`, the EC50 is > 55.7 µM (inactive).

For `Cc1cc(C)c2nc(NNC(=O)c3ccc(S(=O)(=O)N4CCCC(C)C4)cc3)sc2c1` (stereo unspecified), the EC50 is > 55.7 µM (inactive).

For `Cc1cccc2sc(NNC(=O)c3ccc(S(=O)(=O)N4CC(C)CC(C)C4)cc3)nc12` (stereo unspecified), the EC50 is > 55.7 µM (inactive).

As to `Cc1cc(C)c2nc(NNC(=O)c3ccc(S(=O)(=O)N4CC(C)CC(C)C4)cc3)sc2c1` (stereo unspecified), the EC50 is > 55.7 µM (inactive).

As to `COc1cc2c3cc1Oc1cc(ccc1O)C[C@@H]1c4c(cc(OC)c(O)c4Oc4ccc(cc4)C[C@H]3N(C)CC2)CCN1C`, the EC50 is > 55.7 µM (inactive).

As to `Cc1cccc2sc(NNC(=O)c3ccc(S(=O)(=O)N4CCCC(C)C4)cc3)nc12` (stereo unspecified), the EC50 was > 55.7 µM (inactive).

For `CCOc1ccc(Br)cc1C(=O)Nc1ccc(C(=O)NCC(C)C)cc1`, the EC50 was > 55.7 µM (inactive).

For `C=CCNC(=O)/C(C#N)=C/c1cn(-c2ccccc2)nc1-c1cccs1`, the EC50 was > 55.7 µM (inactive).

Turning to `Cc1c2ccncc2c(C)c2c1[nH]c1ccccc12`, the EC50 was > 55.7 µM (inactive).
